{
  "source": "patent US9873680B2",
  "about": "(Gilead Sciences, Inc., priority 2014, dated 2018)",
  "key": {"HIV-IIIb": {"system": "HIV-IIIb", "assay": "Test A: Antiviral Assay in MT4 Cells", "type": "cell-based, HIV-1", "details": "Human immunodeficiency virus 1, MT4, 120 h; 0.2 μM drug concentration; MT-4 cells infected with HIV-IIIb, 5 days; values normalized to 100%; average over time; read-out: % inhibition at 0.2 μM (percent inhibition of virus-induced cell killing)", "how_it_was_run": "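Readout was CellTiter-Glo luminescence after 10 min room-temperature lysis, taken 5 days after plating at 37 °C. The 2000 MT-4 cells per well, mixed 1 h beforehand with HIV-IIIb (m.o.i. 0.003), went straight onto the diluted compound.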"}, "[1]": {"assay": "Test B: Cytotoxicity Assay", "type": "cell-based", "details": "human, uninfected MT-4 cells, CellTiter-Glo", "experimental": "Test B: Cytotoxicity Assay Compound cytotoxicity and the corresponding CC50 values was determined using the same protocol as described in the antiviral assay (Test A) except that uninfected cells were used."}},
  "data": [
    {"smiles": "Cn1nc(NS(C)(=O)=O)c2cccc(-c3ccc(C#CC4(O)CCOC4)nc3[C@H](Cc3cc(F)cc(F)c3)NC(=O)Cn3nc(C(F)(F)F)c4c3C(F)(F)[C@@H]3C[C@H]43)c21", "note": "(stereo partly drawn) [Compound 30B, 2-((3bS,4aR)-5,5-difluoro-3-(trifluoromethyl)-3b,4,4a,5-tetrahydro-1H-cyclopropa[3,4]cyclopenta[1,2-c]pyrazol-1-yl)-N-((1S)-2-(3,5-difluorophenyl)-1-(6-((3-hydroxytetrahydrofuran-3-yl)ethynyl)-3-(1-methyl-3-(methylsulfonamido)-1H-indazol-7-yl)pyridin-2-yl)ethyl)acetamide]", "values": [
      {"measurement": "inhibition at 0.2 µM", "setting": "HIV-IIIb", "value": 100, "unit": "%"},
      {"measurement": "CC50 at 5 days", "setting": "[1]", "value": 19.5, "unit": "µM"}
    ]}
  ]
}
